Like-named read-outs stand apart in the source and are kept apart here.
Assays:
[1] = tested on: SIVmac239; assay: Viral infection assay, SIV Env; assay type: cell-based; conditions: virus with SIVmac239 Env
Procedure: (§1) Production of recombinant HIV-1 expressing luciferase. […] After 48 hours, the supernatant was collected, buffered with 50 mM Hepes pH 7.4 (final concentration) and centrifuged for 5 minutes at 750×g and 4° C. The virus-containing supernatant was used directly or frozen at −80° C.
(§2) Viral infection assay. Each test compound was serially diluted in DMSO in a 96-well B&W isoplate (PerkinElmer, Boston, Mass.) using an HP D300 Digital Dispenser, to a final volume of 450 nl. DMSO was used as a control. Viruses pseudotyped with a specific Env were added to each well and incubated briefly at room temperature. Cf2Th-CD4/CCR5 cells were detached with StemPro Accutase Cell Dissociation Reagent (Invitrogen, cat #A11105-01), washed once, and 5000 cells were added to each well. […] Following incubation, the medium was aspirated and cells were lysed with 30 μl of Passive Lysis Buffer (Promega, cat #E1941). The activity of the firefly luciferase, which was used as a reporter protein in the system, was measured with a Centro LB 960 luminometer (Berthold Technologies, Oak Ridge, Tenn.). One hundred microliters of assay buffer (15 mM MgSO4, 15 mM KH2PO4/K2HPO4 pH 7.8, 1 mM ATP and 1 mM DTT) was injected to each well, followed by a 50 μl injection of 1 mM Dluciferin potassium salt (BD Pharmingen, San Jose, Calif.); luminescence was measured for 2 sec. […]

[2] = tested on: HIV-2OC1; assay: Viral infection assay, HIV-2 Env; assay type: cell-based; conditions: virus with HIV-2OC1 Env
Procedure: as §1, §2

[3] = tested on: HIV-1JR-FL gp120; assay: ELISA, binding of monoclonal antibodies to gp120 in presence of compound; conditions: preincubation of gp120 with 18A
Procedure: Enzyme-linked immunosorbent assay (ELISA). […] Wells were blocked with blocking buffer (5% nonfat dry milk (Bio-Rad) in PBS) for 2 hours and then washed twice with PBS. Between 0.25 and 0.5 μg of purified HIV-1JR-FL gp120 in blocking buffer was added to each well; the plate was incubated for 60 minutes and washed thrice with PBS. […] The plate was incubated for a further 30 minutes and washed thrice with 0.05% Tween in PBS and thrice with PBS. […] The plate was incubated for 30 minutes, washed three times with 0.05% Tween in PBS and three times with PBS, as before, and 80 μl of SuperSignal chemiluminescent substrate (Pierce) was added to each well. The relative light units in each well were measured for 2 sec with a Centro LB 960 luminometer (Berthold Technologies). All procedures were performed at room temperature. Cellbased ELISA was performed.

[4] = tested on: CCR5; assay: Binding of soluble gp120 to Cf2Th-CCR5 cells (flow cytometry); design: species or system human; conditions: absence and presence of soluble CD4
Procedure: Binding of soluble JR-FL gp120 to CCR5 was tested by incubating 1 million Cf2Th-CCR5 cells with 20 μg/mL purified gp120 in the presence or absence of 20 μg/mL sCD4 for 1 hour. After two washes, the cells were incubated with the 2G12 antibody followed by Allophycocyanin-conjugated F(ab′)2 fragment donkey anti-human IgG antibody to detect bound gp120. The cells were analyzed by FACS. All procedures were performed at room temperature.

[5] = tested on: HIV-1MN27; assay: Viral infection assay, CXCR4-tropic virus, Cf2Th-CD4/CXCR4 cells; assay type: cell-based; conditions: HIV-1MN27, Cf2Th cells expressing CD4 and CXCR4
[6] = tested on: PBMC; assay: Viability assay (CellTiterGlo), PBMC; assay type: cell-based; conditions: human PBMC, range of tested concentrations
Procedure: Viability Assay. As part of the secondary screen, cells were incubated for ˜20 hours in 384-well plates in a final volume of 45 μl growth medium at 37° C. The plate was equilibrated to room temperature, 15 μl of CellTiterGlo (Promega) was added to each well and luminescence was measured as described above. The viability assay with 18A was done in parallel to the viral infection assay for the same length of time. 18A was diluted using an HP D300 Digital Dispenser in a 96-well B&W isoplate and cells were added. After incubation of 26-30 hours (Cf2Th cells) or 40-44 hours (PBMC). 30 μl (Cf2Th cells) or 100 μl (PBMC) of CellTiterGlo was added and luminescence was measured as described above.

[7] = tested on: HIV-1HXBc2; assay: Cold inactivation of recombinant virus; assay type: cell-based; conditions: in the presence of 18A vs DMSO or unrelated compounds
Procedure: For washout experiments, different concentrations of 18A were incubated with the recombinant viruses at 37° C. for 20 minutes. The viruses were laid on a 20% sucrose cushion and ultracentrifuged at 30,000 RPM in an SW55 rotor for 1.5 hours at 4° C. After the supernatant was aspirated, viruses were suspended in 500-1000 μl medium and 90 μl of the virus suspension was used to infect 5000 Cf2Th-CD4/CCR5 cells (5 replicates). The cells were incubated for 48 hours and processed as described above. Sensitivity of recombinant viruses to cold inactivation was measured.

[8] = tested on: all CCR5-using HIV-1 isolates; assay: Viral infection assay, panel of CCR5-using HIV-1 isolates; assay type: cell-based; conditions: Cf2Th-CD4/CCR5 cells
Procedure: as §1, §2

[9] = tested on: HIV-1ADA; assay: Viral infection assay, ADA Env (wild type, ΔV1V2, CD4-independent N197S); assay type: cell-based; conditions: for Fold change: mutant/wild-type IC50
Procedure: To study CD4-independent infection, the full-length HIV-1ADA N197S Env mutant was used. This Env is an ADA-HXBc2 chimera with an N197S change. The control “wild-type” ADA Env used in these experiments is also an ADA-HXBc2 chimera.
as §1
Viral infection assay. Each test compound was serially diluted in DMSO in a 96-well B&W isoplate (PerkinElmer, Boston, Mass.) using an HP D300 Digital Dispenser, to a final volume of 450 nl. DMSO was used as a control. Viruses pseudotyped with a specific Env were added to each well and incubated briefly at room temperature. Cf2Th-CD4/CCR5 cells were detached with StemPro Accutase Cell Dissociation Reagent (Invitrogen, cat #A11105-01), washed once, and 5000 cells were added to each well. […] Following incubation, the medium was aspirated and cells were lysed with 30 μl of Passive Lysis Buffer (Promega, cat #E1941). The activity of the firefly luciferase, which was used as a reporter protein in the system, was measured with a Centro LB 960 luminometer (Berthold Technologies, Oak Ridge, Tenn.). One hundred microliters of assay buffer (15 mM MgSO4, 15 mM KH2PO4/K2HPO4 pH 7.8, 1 mM ATP and 1 mM DTT) was injected to each well, followed by a 50 μl injection of 1 mM Dluciferin potassium salt (BD Pharmingen, San Jose, Calif.); luminescence was measured for 2 sec. Infection of PBMC was done as above, but 20,000-40,000 cells/well and viruses concentrated by ultracentrifugation were used. After four hours of incubation with viruses, the cells were centrifuged at 200×g for 6 minutes at 4° C., resuspended in 100 μl RPMI-PBMC medium and incubated at 37° C. for an additional 36-40 hours (total 40-44 hours). Supernatant was removed after centrifugation at 400×g for 5 minutes and cells were processed to detect luciferase activity, as described above.

## O=C(N/N=C/c1ccc(O)cc1)Nc1cccc2nsnc12 [Compound 18A]
[1]
  inhibition of infection: significantly less potent
[2]
  inhibition of infection: significantly less potent
[3]
  binding of E51, 17b and 412d (CD4i) antibodies to gp120: modest but reproducible decrease
  binding of most monoclonal antibodies to gp120: not affected
[4]
  effect on gp120 binding to CCR5: No effect
[5]
  IC50: ~25 µM
[6]
  effect on viability of the cells: No significant effect
[7]
  sensitivity of virus to cold inactivation: decreased sensitivity to cold inactivation
[8]; read-out: IC50 values of the majority (75%) of CCR5-using HIV-1 isolates
  IC50: < 6 µM
[8]; read-out: average IC50 for all CCR5-using HIV-1 isolates
  IC50: 5.7 µM
[9]; ADA Env wild type
  IC50: 12.8 ± 1.5 µM
  Fold change: 1
[9]; ADA Env ΔV1V2
  IC50: 10.8 ± 2 µM
  Fold change: 0.8
[9]; CD4-independent HIV-ADA N197S
  infection of CD4-negative, CCR5-expressing cells: protected CD4-negative, CCR5-expressing cells from infection
[9]; wild-type HIV-1ADA and HIV-1ADA N197S
  entry into CD4/CCR5-expressing cells: blocked by 18A with a similar profile of inhibition
